Results as given in patent US20200157635A1, “DIAGNOSTIC AND THERAPEUTIC METHODS FOR CANCER” (Genentech, Inc., priority 2017, published 2020).

System: patients with NSCLC
Experiment: POPLAR phase II trial: atezolizumab vs docetaxel, efficacy by PD-L1, CXCL9, IFNG expression level
Format: in vivo, human
Description: An RNA-based molecular assay was used to evaluate the association between clinical response to treatment with atezolizumab (MPDL3280A), an anti-PD-L1 antibody, and expression levels of PD-L1, CXCL9, and IFNG in individuals with NSCLC enrolled in a phase II clinical trial in which atezolizumab was administered as a monotherapy.
The POPLAR (Clinical Trial ID No.: NCT01903993) patient population evaluated for PD-L1, CXCL9, and IFNG expression levels consisted of 215 patients. Patients were eligible for enrollment in the POPLAR study if they had locally advanced or metastatic (e.g., stage IIIB, stage IV, or recurrent) NSCLC; disease progression during or following treatment with a prior platinum-containing regimen for locally advanced, unresectable/inoperable, or metastatic NSCLC, or disease recurrence within 6 months of treatment with a platinum-based adjuvant/neoadjuvant regimen; measurable disease, as defined by RECIST v1.1; and an ECOG performance status of 0 or 1. Participants were randomized to receive either atezolizumab at a dose of 1200 mg intravenously every three weeks or docetaxel 75 mg per square meter (mg/m^2) intravenously every three weeks. Treatment with atezolizumab could be continued as long as participants were experiencing clinical benefit, i.e., in the absence of unacceptable toxicity or symptomatic deterioration attributed to disease progression.
To evaluate whether PD-L1, CXCL9, and IFNG gene expression status was associated with patient response to atezolizumab (MPDL3280A) treatment, the gene expression level of PD-L1, CXCL9, and IFNG was assessed in pre-treatment, FFPE tumor samples obtained from each patient. RNA was isolated from the FFPE tumor sections and PD-L1, CXCL9, and IFNG gene expression was measured using PCR-based methodology (Fluidigm). The expression level, expressed as the cycle threshold (Ct) for each of PD-L1, CXCL9, and IFNG was normalized to the expression level of a housekeeping gene (e.g., TMEM55B). The normalized expression value, dCt, where dCt(target gene)=Ct(control gene)−Ct(target gene) for each of PD-L1, CXCL9, and IFNG, was then averaged to obtain a single numerical averaged dCt value for the aggregate expression level of PD-L1, CXCL9, and IFNG.
Tumor specimens obtained from the patients were categorized into different high or low expression level subgroups based on the immune-score expression level of PD-L1, CXCL9, and IFNG relative to a cut-off value for a given percentile (25th, 50th, or 75th percentile) of the population. The 25th percentile was defined by the immune-score expression levels of PD-L1, CXCL9, and IFNG greater than or equal to 25% of all immune-score expression levels of PD-L1, CXCL9, and IFNG in the population analyzed. The 50th percentile was defined by the immune-score expression levels of PD-L1, CXCL9, and IFNG greater than or equal to 50% of all immune-score expression levels of PD-L1, CXCL9, and IFNG in the population analyzed. The 75th percentile was defined by the immune-score expression levels of PD-L1, CXCL9, and IFNG greater than or equal to 75% of all immune-score expression levels of PD-L1, CXCL9, and IFNG in the population analyzed. […]
The OS, PFS, and ORR endpoints from the POPLAR clinical trial were evaluated against the PD-L1, CXCL9, and IFNG expression level cut-offs defined herein (e.g., the 25%, 50%, and 75% expression level quartiles). […]

Question: `CC(=O)O[C@@]12CO[C@@H]1C[C@H](O)[C@@]1(C)C(=O)[C@H](O)C3=C(C)[C@@H](OC(=O)[C@H](O)[C@@H](NC(=O)OC(C)(C)C)c4ccccc4)C[C@@](O)([C@@H](OC(=O)c4ccccc4)[C@H]21)C3(C)C` [docetaxel] was tested. Which ORR (BEP (n = 113 vs 112)) did it give?
Answer: 8%

Question: And the ORR (ITT (n = 144 vs 143))?
Answer: 15% vs 15%

Question: And the ORR (PD-L1, CXCL9, IFNG expression level percentile ≥25%)?
Answer: 13%

Question: And the ORR (PD-L1, CXCL9, IFNG expression level percentile ≥50% (median))?
Answer: 15%

Question: And the ORR (PD-L1, CXCL9, IFNG expression level percentile ≥75%)?
Answer: 13%
